Measurements published in patent US6727084B1, “Cold-active beta-galactosidase, the process for its preparation and the use thereof” (Universite de Liege, priority 1999, dated 2004).
Entries after “also recorded” stand apart in the source; their conditions may differ.

Experiments:
[1] = target: T1, Pseudoalteromonas haloplanktis LMG P-19143 cold-active β-galactosidase (lac Z), native, SEQ ID NO: 2 (Pseudoalteromonas haloplanktis, UniProt P81650); experiment: kinetics of LMG P-19143 β-galactosidase with lactose as substrate (galactose dehydrogenase assay); type: biochemical; parameters: ORF of 1038 residues; conditions: 25° C.
T1 sequence (P81650 whole entry): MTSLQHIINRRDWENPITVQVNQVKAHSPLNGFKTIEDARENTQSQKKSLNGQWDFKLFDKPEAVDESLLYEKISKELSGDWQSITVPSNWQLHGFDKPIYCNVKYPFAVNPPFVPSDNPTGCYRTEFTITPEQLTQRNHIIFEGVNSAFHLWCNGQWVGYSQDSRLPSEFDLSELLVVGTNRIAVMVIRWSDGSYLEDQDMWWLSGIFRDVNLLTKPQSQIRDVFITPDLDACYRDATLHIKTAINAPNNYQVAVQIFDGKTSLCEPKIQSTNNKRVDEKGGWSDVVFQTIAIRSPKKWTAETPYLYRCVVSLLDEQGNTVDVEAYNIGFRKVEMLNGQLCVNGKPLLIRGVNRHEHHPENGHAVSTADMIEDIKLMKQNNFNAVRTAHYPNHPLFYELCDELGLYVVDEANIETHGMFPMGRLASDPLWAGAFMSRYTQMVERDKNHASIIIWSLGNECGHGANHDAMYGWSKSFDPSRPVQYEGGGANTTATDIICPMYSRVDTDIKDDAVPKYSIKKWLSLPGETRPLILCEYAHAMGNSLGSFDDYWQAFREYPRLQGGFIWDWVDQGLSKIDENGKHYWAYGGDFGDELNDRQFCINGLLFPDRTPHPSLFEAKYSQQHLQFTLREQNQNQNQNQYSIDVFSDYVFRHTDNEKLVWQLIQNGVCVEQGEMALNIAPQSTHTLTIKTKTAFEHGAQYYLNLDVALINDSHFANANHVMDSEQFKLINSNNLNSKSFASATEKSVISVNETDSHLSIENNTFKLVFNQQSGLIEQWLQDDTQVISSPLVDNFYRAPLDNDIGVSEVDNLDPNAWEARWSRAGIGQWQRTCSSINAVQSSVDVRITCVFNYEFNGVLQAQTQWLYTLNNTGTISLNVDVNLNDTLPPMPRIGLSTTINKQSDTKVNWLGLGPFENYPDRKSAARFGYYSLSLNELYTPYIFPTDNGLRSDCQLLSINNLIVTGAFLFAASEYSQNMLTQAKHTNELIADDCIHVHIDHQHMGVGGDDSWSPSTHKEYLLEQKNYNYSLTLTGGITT
Text: (§1) The definition of enzyme activity units can be defined according to the substrate used with lactose as a substrate, the unit of activity is defined as the amount of enzyme which releases one micro-mole glucose in one minute under standard reaction conditions (temperature, pH). Another commonly used substrate is ortho-nitrophenyl-β-D galactopyranoside (ONPG) and in this case, the unit of activity is defined as the amount of enzyme which hydrolyses one micro-mole of ONPG in one minute under standard reaction conditions.
Km was also determined at 25° C. with lactose (1 mM to 50 mM) as a substrate.

[2] = target: T1, Pseudoalteromonas haloplanktis LMG P-19143 cold-active β-galactosidase (lac Z), native, SEQ ID NO: 2; experiment: biochemical; conditions: pH 7.5, read-out: residual activity after EDTA treatment (% of initial activity)
Description: The assay of β-galactosidase was carried out using 3 mM ONPG (ortho-nitrophenyl-β-galactopyranoside) as a chromogenic substrate in 100 mM sodium phosphate buffer, pH 7,3, 1 mM MgCl2, 100 mM 2-mercaptoethanol (Sigma). Activities toward the chromogenic substrate were recorded in a thermostated Uvicon 860 Spectrophotometer (Kontron) at 25° C. and calculated on the basis of an extinction coefficient for o-nitrophenol of 3.5 mM^−1 cm^−1 at 410 nm (Miller, J. H. and Reznikoff, W. S., Eds. 1978; The Operon. Cold Spring Harbor Laboratory Press, N.Y.). Assays using lactose as a substrate were carried out using various concentrations of lactose. The reaction was stopped by boiling the sample in a water bath for 3 minutes. The galactose dehydrogenase assay was used to measure the amount of galactose released by the enzyme (Schachter H. 1975, Enzymatic microassays for D-Mannose, D-Glucose, D-Galactose, L-Fucose, and D-Glucosamine. Methods Enzymol., 41: 3-10.) The specific activity of β-galactosidase is defined as micro-moles of galactose released per minute per mg of protein.
To determine the effect of divalent metal ions on activity, assays were performed in 100 mM phosphate buffer at 25° C. and pH 7.5. The enzyme preparation was treated with 5 mM EDTA to complex metal ions.

[3] = target: T2, E. coli β-galactosidase (Sigma G2513) (Escherichia coli, UniProt P00722); experiment: biochemical; conditions: read-out: stimulation of enzyme activity by 2-mercaptoethanol (factor)
T2 sequence (P00722 whole entry): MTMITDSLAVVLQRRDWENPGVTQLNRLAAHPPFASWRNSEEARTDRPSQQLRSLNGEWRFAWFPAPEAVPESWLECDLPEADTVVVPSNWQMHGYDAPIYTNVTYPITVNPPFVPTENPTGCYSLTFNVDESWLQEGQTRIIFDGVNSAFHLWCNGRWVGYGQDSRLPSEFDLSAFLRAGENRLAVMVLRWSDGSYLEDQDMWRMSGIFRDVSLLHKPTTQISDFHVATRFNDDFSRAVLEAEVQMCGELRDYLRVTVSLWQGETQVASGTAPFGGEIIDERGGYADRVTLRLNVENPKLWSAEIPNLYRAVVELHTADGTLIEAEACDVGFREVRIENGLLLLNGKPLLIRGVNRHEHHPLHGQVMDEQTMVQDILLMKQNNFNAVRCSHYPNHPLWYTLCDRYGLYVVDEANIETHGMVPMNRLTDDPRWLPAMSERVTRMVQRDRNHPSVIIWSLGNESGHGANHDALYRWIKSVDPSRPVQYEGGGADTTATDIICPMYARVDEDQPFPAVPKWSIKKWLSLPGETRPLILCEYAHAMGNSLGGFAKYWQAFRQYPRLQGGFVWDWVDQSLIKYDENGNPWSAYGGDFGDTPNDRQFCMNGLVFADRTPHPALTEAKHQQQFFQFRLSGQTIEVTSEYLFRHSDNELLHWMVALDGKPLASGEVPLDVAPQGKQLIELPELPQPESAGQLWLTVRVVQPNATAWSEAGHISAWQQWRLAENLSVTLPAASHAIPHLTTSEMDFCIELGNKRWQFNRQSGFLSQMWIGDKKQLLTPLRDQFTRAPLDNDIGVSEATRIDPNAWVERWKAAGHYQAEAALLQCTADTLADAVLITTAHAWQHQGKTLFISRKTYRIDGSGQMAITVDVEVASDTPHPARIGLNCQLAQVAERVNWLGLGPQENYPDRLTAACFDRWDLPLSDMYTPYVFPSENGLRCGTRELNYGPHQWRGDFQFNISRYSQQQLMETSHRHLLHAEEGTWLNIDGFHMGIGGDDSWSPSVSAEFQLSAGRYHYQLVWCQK
Description: (§2) The β-galactosidase from Escherichia coli used as a control was from Sigma (G2513).
(§3) The effect of K+ was determined by assaying activity in 100 mM phosphate buffer containing KCl at concentrations from 0 to 100 mM. LMG P-19143 β-galactosidase optimal activity was recorded using a KCl concentration of 80 mM whereas the E. coli β-galactosidase optimal activity was recorded at a KCl concentration of 40 mM. At theses concentrations, KCl stimulated the activity of both enzymes by a factor of 1.5.
(§4) Optimal activity of the LMG P-19143 enzyme was recorded at 80 mM 2-mercaptoethanol and that of E. coli enzyme at 40 mM 2-mercaptoethanol. At these concentrations, the reducing agent stimulated LMG P-19143 enzyme activity twofold and E. coli enzyme by a factor of 1.5.

[4] = target: T1, Pseudoalteromonas haloplanktis LMG P-19143 cold-active β-galactosidase (lac Z), native, SEQ ID NO: 2; experiment: effect of 2-mercaptoethanol on LMG P-19143 β-galactosidase activity; type: biochemical; parameters: ORF of 1038 residues; conditions: 80 mM 2-mercaptoethanol (optimal activity), 100 mM phosphate buffer; ONPG
Description: as §3, §4

[5] = target: T2, E. coli β-galactosidase (Sigma G2513); experiment: kinetics of E. coli β-galactosidase (control) with ONPG as substrate; type: biochemical
Text: as §1, §2
(§5) The activation energy (Ea) was determined from the slope (−Ea/R) of Arrhenius plot and the thermodynamic activation parameters of the reaction were calculated according to the following equations: […]
(§6) At 8° C., the kcat (s^−1) of the LMG P-19143 enzyme is twice as high as that of E. coli enzyme. Theses curves have been used to construct Arrhenius plots and to calculate the activation energy parameters of the reaction as shown in table 2.
(§7) Assays were performed with ONPG as a substrate at various concentrations and at different temperatures to determine Km and Vmax values.

[6] = target: T1, Pseudoalteromonas haloplanktis LMG P-19143 cold-active β-galactosidase (lac Z), native, SEQ ID NO: 2; experiment: kinetics of LMG P-19143 β-galactosidase with ONPG as substrate; type: biochemical; parameters: ORF of 1038 residues
Text: as §1, §5, §6, §7

OC[C@H]1O[C@@H](O[C@H]2[C@H](O)[C@@H](O)C(O)O[C@@H]2CO)[C@H](O)[C@@H](O)[C@H]1O (stereo partly drawn) [lactose]
km relative to E. coli enzyme [1]: five times lower
physiological efficiency (kcat/km) relative to E. coli β-galactosidase [1]: eighty times as high; also recorded: ninety times higher
turnover (kcat) relative to E. coli enzyme [1]: fifteen times

O=C(O)CN(CCN(CC(=O)O)CC(=O)O)CC(=O)O [EDTA]
remaining activity at 5000 µM [2]: < 10%

OCCS [2-mercaptoethanol]
fold induction at 40000 µM [3]: 1.5
stimulation of enzyme activity by 2-mercaptoethanol [4]: twofold

O=[N+]([O-])c1ccccc1O[C@@H]1O[C@H](CO)[C@H](O)[C@H](O)[C@H]1O [ONPG, ortho-nitrophenyl-β-D galactopyranoside]
apparent Km (compared with LMG P-19143 enzyme) ([5]; 10° C.): nearly the same
kcat ([5]; 20° C.): 199 s⁻¹
km (comparison of both enzymes) ([5]; at low temperature): comparable
kcat relative to that of E. coli enzyme ([6]; ONPG as substrate, 8° C.): twice as high
apparent Km (compared with E. coli enzyme) ([6]; ONPG as substrate, 10° C.): nearly the same
kcat ([6]; ONPG as substrate, 20° C.): 408 s⁻¹
km (comparison of both enzymes) ([6]; ONPG as substrate, at low temperature): comparable
physiological efficiency (kcat/km) relative to E. coli enzyme ([6]; ONPG as substrate, FIG. 6): about three times higher
turnover (kcat) relative to E. coli enzyme ([6]; ONPG, temperature range of 0-40° C.): higher
